Our source for the Kd values is BindingDB's records for doi:10.7270/Q25B01BH (D3R/Abbott, 2015).

As usually defined, the Kd is the free concentration of one partner at which half of the binding sites on the other are occupied at equilibrium, for simple one-to-one binding. A higher Kd goes with lower affinity.

Bounds are passed on as bounds.

In the test the target is Cyclin-dependent kinase 2 (Homo sapiens, UniProt P24941). The test is described as follows: OctetRed_Method1. The source says:
OctetRed_Method1
Turning to `COc1ccc(NC(=O)CN2CCOCC2)c([N+](=O)[O-])c1` [CS189], the Kd was over 100 µM.
As to `COc1ccccc1-n1nnnc1SCC(=O)Nc1ccccc1SC` [CS197], the Kd is over 100 µM.
Molecule `CCn1c(SCC(=O)Nc2cccc(C(C)=O)c2)nnc1-c1ccncc1` [CS66] came in with a dissociation constant (Kd) of over 100 µM.
The result for `COC(=O)c1ccccc1NC(=O)CSc1nnc(C23C[C@H]4C[C@@H](C2)C[C@@H](C3)C4)n1C` [CS38] reads over 100 µM; that for `O=C(Nc1ccc(S(=O)(=O)Nc2ncccn2)cc1)c1c(Cl)cccc1Cl` [CS93], over 100 µM; that for `O=C(CC1OCCN(Cc2ccccc2)C1=O)Nc1ccc2c(c1)OCCO2` (centres undefined) [CS208], over 100 µM.
In the case of `Cn1c(COc2cccc3cccnc23)nnc1SCC(N)=O` [CS64], the Kd was over 100 µM.
As to `COc1ccccc1NC(=O)CSc1nnc(-c2ccc([N+](=O)[O-])cc2)n1-c1ccccc1` [CS82], the Kd was over 100 µM.
In the case of `COc1cc(OC)c(NC(=O)CSc2nnc(-c3ccncc3)n2C)cc1Cl` [CS96], the Kd was over 100 µM.
Molecule `O=C(O)c1cccc(CSc2nnc(-c3ccncc3)o2)c1` [3-({[5-(pyridin-4-yl)-1,3,4-oxadiazol-2-yl]sulfanyl}methyl)benzoic acid] showed a dissociation constant Kd of over 100 µM.
The result for `CN1CCN(C(=O)c2ccccc2N(Cc2ccccc2)S(C)(=O)=O)CC1` [CS76] reads over 100 µM; that for `CC(Sc1nc2ccccc2[nH]1)C(=O)Nc1ccc(S(N)(=O)=O)cc1` (centres undefined) [CS140], over 100 µM.
`CN1CCN(C(=O)CN(c2cc(C(F)(F)F)ccc2Cl)S(=O)(=O)c2ccccc2)CC1` [CS65]: the dissociation constant (Kd) is over 100 µM.
`Cc1cc(C)c(S(=O)(=O)N(C)CC(=O)N2CCC(C(N)=O)CC2)c(C)c1` [CS152] showed a Kd of over 100 µM.
Turning to `Cc1nonc1OCCNc1cc(N2CCOCC2)ccc1[N+](=O)[O-]` [CS204], the Kd is over 100 µM.
In the case of `Cc1ccc(NS(=O)(=O)c2cc(C(=O)Nc3ccccc3C(=O)N3CCOCC3)ccc2Cl)c(C)c1` [CS238] it was over 100 µM; in that of `CS(=O)(=O)N(CC(=O)Nc1ccccc1C(=O)N1CCOCC1)c1ccc(Cl)cc1` [CS160], over 100 µM; in that of `COc1ccccc1CNC(=O)CSc1nnnn1-c1c(C)cccc1C` [CS184], over 100 µM.
Molecule `Cn1nc([N+](=O)[O-])nc1Oc1ccccc1C(=O)N1CCOCC1` [CS231] gave a Kd of over 100 µM.
In turn, `COc1cc([N+](=O)[O-])ccc1NC(=O)CN1CCOCC1` [CS142] yielded a Kd of over 100 µM.
In turn, `COc1ccc(OCC(=O)Nc2cc(-c3nn4c(C)nnc4s3)ccc2C)cc1` [CS36] had a Kd of over 100 µM.
On to `CS(=O)(=O)c1ccc(NC(=O)CSc2nnc(-c3ccccc3F)n2-c2ccccc2)cc1` [CS74], for which the equilibrium dissociation constant (Kd) is over 100 µM.
The result for `COc1cc(NC(=O)CSc2nncn2C)cc(OC)c1OC` [CS202] reads over 100 µM; that for `NC(=O)c1ccc(NCCCN2CCOCC2)c([N+](=O)[O-])c1` [CS69], over 100 µM.
The result for `O=C(Cc1ccccc1[N+](=O)[O-])Nc1ccccc1C(=O)N1CCOCC1` [CS209] reads over 100 µM.
`CC(=O)Nc1ccc(S(=O)(=O)Nc2c(C)nn(-c3ccccc3)c2C)cc1` [CS70] came in with a Kd of over 100 µM.
Molecule `COc1ccc(C(=O)CSc2nnc(-c3ccc(OC)c(OC)c3)n2-c2ccccc2)cc1` [CS67] came in with an equilibrium dissociation constant (Kd) of over 100 µM.
In the case of `COc1ccc2[nH]cc(CCNC(=O)Nc3ccc(Cl)c(Cl)c3)c2c1` [CS236] it was over 100 µM; in that of `CCn1c(SCC(=O)Nc2ccccc2OC)nnc1-c1c[nH]c2ccccc12` [CS213], over 100 µM.
The result for `CCc1nnc(NS(=O)(=O)c2ccc(NC(=O)c3ccc(F)cc3)cc2)s1` [CS31] reads over 100 µM.
In the case of `COc1ccc([N+](=O)[O-])cc1NC(=O)C(C)Oc1ccccc1C` (centres undefined) [CS177] it was over 100 µM; in that of `Cc1c(NC(=O)C2CCCN2S(=O)(=O)c2ccccc2)c(=O)n(-c2ccccc2)n1C` (centres undefined) [CS68], over 100 µM.
The molecule `O=C(COc1ccccc1[N+](=O)[O-])Nc1ccccc1N1CCOCC1` [CS46] registered a Kd of over 100 µM.
In turn, `CCOC(=O)c1cnc(Nc2nc3ccccc3o2)nc1CN1CCN(c2ccccc2)CC1` [CS196] displayed a dissociation constant Kd of over 100 µM.
With `CSc1ccc(S(=O)(=O)NCc2ccccn2)cc1` [CS230], the equilibrium dissociation constant (Kd) is over 100 µM.
On to `COC(=O)c1ccccc1Oc1nc(NC(C)C)nc(NC(C)C)n1` [CS92], for which the Kd was over 100 µM.
In the case of `CCOc1ccc2nc(SCC(=O)Nc3c(C)n(C)n(-c4ccccc4)c3=O)sc2c1` [CS49] it was over 100 µM; in that of `Cn1c(Cc2ccccc2)nnc1Sc1ccc([N+](=O)[O-])cc1C(=O)N1CCOCC1` [CS188], over 100 µM.
In the case of `COc1ccccc1NC(=O)CSc1nnc(-c2ccc(F)cc2)n1C` [CS98] it was over 100 µM.
`O=C1c2ccccc2C(=O)N1CCCc1nc(-c2cccc([N+](=O)[O-])c2)no1` [CS148] returned a Kd of over 100 µM.
For the molecule `O=C(CSc1nnc(-c2ccncc2)o1)Nc1ccc(F)cc1` [CS234], the dissociation constant (Kd) was over 100 µM.
The molecule `CC(=O)c1cccc(NC(=O)CSc2nnc(-c3cc4ccccc4cc3O)n2C)c1` [CS110] returned a dissociation constant Kd of over 100 µM.
The molecule `CN(CC(=O)Nc1ccccc1C(=O)N1CCCC1)CS(=O)(=O)c1ccc(Br)cc1` [CS130] came in with a dissociation constant Kd of over 100 µM.
`O=C(Cn1ccc([N+](=O)[O-])n1)N1CCCc2ccccc21` [CS154] displayed an equilibrium dissociation constant (Kd) of over 100 µM.
The result for `COc1ccc(NC(=O)CCSc2nnc3scc(-c4ccc(C)cc4)n23)cc1` [CS37] reads over 100 µM; that for `COc1cc(-c2nnc(SCC(N)=O)n2C)cc(OC)c1OC` [CS175], over 100 µM.
Turning to `Cc1cc(C)c(S(=O)(=O)NCc2ccccn2)cc1C` [CS105], the Kd is over 100 µM.
`COc1ccc(-c2nnc(SCC(=O)Nc3c(F)cc(F)cc3Br)n2C)cc1` [CS78] returned a dissociation constant Kd of over 100 µM.
Molecule `COc1ccc(NC(=O)CSc2nnc(-c3ccncc3)[nH]2)cc1` [CS41] yielded a Kd of over 100 µM.
The molecule `COC(=O)c1ccc(NC(=O)CSc2nnnn2-c2ccccc2OC)cc1` [CS77] yielded a Kd of over 100 µM.
In the case of `COc1cc(OC)c(NC(=O)CSc2nnc(-c3ccccc3)n2C)cc1Cl` [CS47] it was over 100 µM.
The result for `Cc1ccc(S(=O)(=O)Nc2ccccc2CNc2cnc3ccccc3c2)cc1` [CS100] reads over 100 µM; that for `COc1ccccc1NC(=O)CSc1nncn1C` [CS198], over 100 µM.
The molecule `COc1cccc(NC(=O)CSc2nnnn2C)c1` [CS27] showed a dissociation constant (Kd) of over 100 µM.
Consider `COc1ccc2c(C)nc(Nc3nc(C)cc(O)n3)nc2c1`, for which the dissociation constant Kd is over 100 µM.
The result for `CCc1ccccc1NC(=O)CSc1nnc(-c2cccc(OC)c2)n1C` [CS169] reads over 100 µM; that for `COc1cc(OC)c(NC(=O)CSc2nnc(-c3ccncc3)n2-c2ccccc2)cc1Cl` [CS109], over 100 µM.
The result for `O=C(CSc1nnc(-c2ccc([N+](=O)[O-])cc2)n1-c1ccccc1)N1CCOCC1` [CS58] reads over 100 µM; that for `Cc1cccc(NS(=O)(=O)c2cc(C(=O)Nc3ccccc3C(=O)N3CCOCC3)ccc2Cl)c1` [CS232], over 100 µM.
With `COc1ccccc1NC(=O)CSc1nnc(-c2ccccc2Cl)n1-c1ccccc1` [CS222], the Kd was over 100 µM.
In the case of `CCn1c(SCC(=O)Nc2ccccc2OC)nnc1-c1ccco1` [CS119] it was over 100 µM; in that of `CCn1c(SCC(=O)Nc2cccc(OC)c2)nnc1-c1ccncc1` [CS95], over 100 µM.
The result for `O=S(=O)(NCc1ccccn1)c1cc(Cl)c(Cl)cc1Cl` [CS104] reads over 100 µM; that for `CC(=O)Nc1cccc(-c2nnc(SCC(=O)Nc3ccc(C(C)=O)cc3)n2C)c1` [CS71], over 100 µM; that for `COc1ccc(C(=O)C(C)Oc2cccc(NC(=O)c3cccc([N+](=O)O)c3)c2)cc1` (centres undefined) [CS112], over 100 µM.
The result for `Cc1nc2ncnn2c(O)c1NS(=O)(=O)c1ccc(Br)cc1` [CS237] reads over 100 µM; that for `COc1cccc(-n2nnnc2SCC(=O)Nc2c(C)cc(C)cc2C)c1` [CS81], over 100 µM.
`O=C(CSc1nnc(-c2ccccc2O)n1-c1ccccc1)Nc1cccc(C(=O)O)c1` [CS166] returned a dissociation constant (Kd) of over 100 µM.
On to `CCOc1ccc(C(C)=O)cc1Cc1c(O)nc(N)nc1O` [CS55], for which the dissociation constant (Kd) is over 100 µM.
`O=S(=O)(NCCSc1ccccn1)c1ccc(Br)cc1` [CS33]: the Kd is over 100 µM.
For the molecule `Cc1ccnc(NS(=O)(=O)c2ccc(NC(=O)c3cncc(Br)c3)cc2)n1` [CS165], the Kd is over 100 µM.
As to `O=S(=O)(NCc1ccccn1)c1ccc(Cl)c(Cl)c1Cl` [CS116], the Kd was over 100 µM.
In the case of `COC(=O)c1ccc(NC(=O)CSc2nnc(-c3ccc(NC(C)=O)cc3)n2C)cc1` [CS59] it was over 100 µM.
In the case of `COc1ccc(-n2c(SCC(N)=O)nnc2-c2cccs2)cc1` [CS73], the Kd is over 100 µM.
The molecule `CN1CCN(C(=O)CN(C)S(=O)(=O)c2ccc3ccccc3c2)CC1` [CS173] displayed a dissociation constant (Kd) of over 100 µM.
For `CC1CCN(S(=O)(=O)c2ccc(Cl)c(C(=O)Nc3ccc(C(=O)O)cc3)c2)CC1` [CS34], the dissociation constant Kd was over 100 µM.
In the case of `COc1ccc(NC(=O)CSc2nnnn2C)cc1` [CS53], the Kd is over 100 µM.
On to `O=C(Cn1cnc([N+](=O)[O-])n1)Nc1ccc(N2CCOCC2)c(Cl)c1` [CS200], for which the dissociation constant Kd is over 100 µM.
Molecule `COC(=O)c1ccccc1NC(=O)CSc1nnc(-c2ccc(OC)cc2)n1C` [CS72] returned a Kd of over 100 µM.
In the case of `Cc1c(NS(=O)(=O)c2cccc3nonc23)c(=O)n(-c2ccccc2)n1C` [CS150], the dissociation constant Kd was over 100 µM.
As to `O=C(Cn1c(NCCO)nc2ccccc21)c1cccc([N+](=O)[O-])c1` [CS80], the dissociation constant Kd is over 100 µM.
In the case of `O=C(Cn1nc(-c2cccc([N+](=O)[O-])c2)c2ccccc2c1=O)NCC1CCCO1` (centres undefined) [CS102] it was over 100 µM; in that of `COc1ccc(NC(=O)c2ccco2)cc1NC(=O)c1cccnc1` [CS85], over 100 µM.
With `COc1ccc(CC(NC(C)=O)c2ccc3cccnc3c2O)cc1OC` (centres undefined) [CS32], the equilibrium dissociation constant (Kd) is over 100 µM.
